# Test results published in patent publication US20070010671A1, “Novel quinazoline derivatives and methods of treatment related to the use thereof” (priority 2003, published 2007).
# pIC50: −log10 of the molar value.
# Molecular target: MCH receptor (Homo sapiens, UniProt Q99705)
# Experiment: High throughput functional screening FLIPR/FDSS6000: inhibition of MCH-evoked intracellular Ca2+ changes
# Assay type: cell-based
# Conditions: class by percent of control at 10^-7 M or IC50
# Procedure, shortened: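 Constitutively active non-endogenous MCH-R cells; Fluo4-AM 4 μM, 2.5 mM probenecid, 1 hr, 37° C; cpd 3 min, 37° C; MCH 50 nM (antagonist mode); kinetic Ca2+ read Ex488/Em530, 290 s.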
row,SMILES,class
1,CN(C)c1nc(N[C@H]2CC[C@@H](CNC(=O)Nc3cc(Cl)ccc3Cl)CC2)nc2ccccc12 [compound 427],3 (Class 3: The value of percent of control at 10^−7 M was more than 60% or the value of IC50 was more than 200 nM.)
2,COc1ccccc1CNC(=S)NC[C@H]1CC[C@@H](Nc2nc(N(C)C)c3ccccc3n2)CC1 [compound 788],3 (Class 3: The value of percent of control at 10^−7 M was more than 60% or the value of IC50 was more than 200 nM.)
3,"CN(C)c1nc(N[C@H]2CC[C@@H](CNC(=O)Nc3ccc(Cl)c(Cl)c3)CC2)nc2ccccc12 [compound 421, N-(3,4-dichlorophenyl)-N′-[(cis-4-{[4-(dimethylamino)quinazolin-2-yl]amino}cyclohexyl)methyl]urea]",2 (Class 2: The value of percent of control at 10^−7 M was from 40% to 60% or the value of IC50 was from 50 nM to 200 nM.)
4,"CN(C)c1nc(N[C@H]2CC[C@@H](NC(=S)NCc3cccc(Cl)c3)CC2)nc2ccccc12 [compound 305, N-(3-chlorobenzyl)-N′-(cis-4-{[4-(dimethylamino)quinazolin-2-yl]amino}cyclohexyl)thiourea]",1 (Class 1: The value of percent of control at 10^−7 M was less than 40% or the value of IC50 was less than 50 nM.)
5,Cc1cc(Cl)ccc1NC(=S)NC[C@H]1CC[C@@H](Nc2nc(N(C)C)c3ccccc3n2)CC1 [compound 694],3 (Class 3: The value of percent of control at 10^−7 M was more than 60% or the value of IC50 was more than 200 nM.)
6,CN(C)c1nc(N[C@H]2CC[C@@H](NC(=S)NCc3ccc(Cl)c(Cl)c3)CC2)nc2ccccc12 [compound 258],3 (Class 3: The value of percent of control at 10^−7 M was more than 60% or the value of IC50 was more than 200 nM.)
7,COc1ccc(NC(=S)NC[C@H]2CC[C@@H](Nc3nc(N(C)C)c4ccccc4n3)CC2)c(C)c1 [compound 743],2 (Class 2: The value of percent of control at 10^−7 M was from 40% to 60% or the value of IC50 was from 50 nM to 200 nM.)
8,Cc1cc(F)ccc1NC(=S)NC[C@H]1CC[C@@H](Nc2nc(N(C)C)c3ccccc3n2)CC1 [compound 739],3 (Class 3: The value of percent of control at 10^−7 M was more than 60% or the value of IC50 was more than 200 nM.)
9,CC(C)c1ccc(NC(=S)NC[C@H]2CC[C@@H](Nc3nc(N(C)C)c4ccccc4n3)CC2)cc1 [compound 699],3 (Class 3: The value of percent of control at 10^−7 M was more than 60% or the value of IC50 was more than 200 nM.)
10,CN(C)c1nc(N[C@H]2CC[C@@H](NC(=S)Nc3ccc(F)cc3F)CC2)nc2ccccc12 [compound 211],3 (Class 3: The value of percent of control at 10^−7 M was more than 60% or the value of IC50 was more than 200 nM.)
11,CN(C)c1nc(N[C@H]2CC[C@@H](CNC(=S)Nc3ccccc3-c3ccccc3)CC2)nc2ccccc12 [compound 721],3 (Class 3: The value of percent of control at 10^−7 M was more than 60% or the value of IC50 was more than 200 nM.)
12,CN(C)c1nc(N[C@H]2CC[C@@H](CNC(=O)NCc3ccccc3)CC2)nc2ccccc12 [compound 410],3 (Class 3: The value of percent of control at 10^−7 M was more than 60% or the value of IC50 was more than 200 nM.)
13,CN(C)c1nc(N[C@H]2CC[C@@H](NC(=S)Nc3ccc(F)cc3Br)CC2)nc2ccccc12 [compound 383],2 (Class 2: The value of percent of control at 10^−7 M was from 40% to 60% or the value of IC50 was from 50 nM to 200 nM.)
14,"CN(C)c1nc(N[C@H]2CC[C@@H](NC(=S)Nc3ccc(F)c(F)c3F)CC2)nc2ccccc12 [compound 209, N-(cis-4-{[4-(dimethylamino)quinazolin-2-yl]amino}cyclohexyl)-N′-(2,3,4-trifluorophenyl)thiourea]",2 (Class 2: The value of percent of control at 10^−7 M was from 40% to 60% or the value of IC50 was from 50 nM to 200 nM.)
15,COc1cc([N+](=O)[O-])ccc1NC(=S)NC[C@H]1CC[C@@H](Nc2nc(N(C)C)c3ccccc3n2)CC1 [compound 644],3 (Class 3: The value of percent of control at 10^−7 M was more than 60% or the value of IC50 was more than 200 nM.)
16,"CN(C)c1nc(N[C@H]2CC[C@@H](CNC(=O)Nc3cc(F)cc4c3OCOC4)CC2)nc2ccccc12 [compound 769, N-[(cis-4-{[4-(dimethylamino)quinazolin-2-yl]amino}cyclohexyl)methyl]-N′-(6-fluoro-4H-1,3-benzodioxin-8-yl)urea]",2 (Class 2: The value of percent of control at 10^−7 M was from 40% to 60% or the value of IC50 was from 50 nM to 200 nM.)
17,CN(C)c1nc(N[C@H]2CC[C@@H](NC(=S)Nc3ccc(C(C)(C)C)cc3)CC2)nc2ccccc12 [compound 375],3 (Class 3: The value of percent of control at 10^−7 M was more than 60% or the value of IC50 was more than 200 nM.)
18,COc1cccc(CNC(=S)NC[C@H]2CC[C@@H](Nc3nc(N(C)C)c4ccccc4n3)CC2)c1 [compound 733],3 (Class 3: The value of percent of control at 10^−7 M was more than 60% or the value of IC50 was more than 200 nM.)
19,"CN(C)c1nc(N[C@H]2CC[C@@H](CNC(=O)Nc3ccccc3OC(F)F)CC2)nc2ccccc12 [compound 469, N-[2-(difluoromethoxy)phenyl]-N′-[(cis-4-{[4-(dimethylamino)quinazolin-2-yl]amino}cyclohexyl)methyl]urea]",2 (Class 2: The value of percent of control at 10^−7 M was from 40% to 60% or the value of IC50 was from 50 nM to 200 nM.)
20,"COc1ccc(OC)c(CCNC(=S)N[C@H]2CC[C@@H](Nc3nc(N(C)C)c4ccccc4n3)CC2)c1 [compound 296, N-[2-(2,5-dimethoxyphenyl)ethyl]-N′-(cis-4-{[4-(dimethylamino)quinazolin-2-yl]amino}cyclohexyl)thiourea]",2 (Class 2: The value of percent of control at 10^−7 M was from 40% to 60% or the value of IC50 was from 50 nM to 200 nM.)

# Same assay, conditions: class by percent of control at 10^-7 M or by IC50; read-out: class
row,pIC50,SMILES
1,< 6.70,CN(C)c1nc(N[C@H]2CC[C@@H](NC(=O)Nc3cc(Cl)cc(Cl)c3)CC2)nc2ccccc12 [compound 23]
2,> 7.30,"CN(C)c1nc(N[C@H]2CC[C@@H](NC(=O)Nc3ccccc3Br)CC2)nc2ccccc12 [compound 10, N-(2-bromophenyl)-N′-(cis-4-{[4-(dimethylamino)quinazolin-2-yl]amino}cyclohexyl)urea]"
3,< 6.70,COc1ccc([N+](=O)[O-])cc1NC(=O)N[C@H]1CC[C@@H](Nc2nc(N(C)C)c3ccccc3n2)CC1 [compound 106]
4,6.70 to 7.30,CN(C)c1nc(N[C@H]2CC[C@@H](NC(=S)Nc3ccc(Cl)cc3)CC2)nc2ccccc12 [compound 164]
5,> 7.30,"CN(C)c1nc(N[C@H]2CC[C@@H](NC(=O)Nc3ccccc3I)CC2)nc2ccccc12 [compound 101, N-(cis-4-{[4-(dimethylamino)quinazolin-2-yl]amino}cyclohexyl)-N′-(2-iodophenyl)urea]"
6,> 7.30,"Cc1ccccc1CNC(=O)N[C@H]1CC[C@@H](Nc2nc(N(C)C)c3ccccc3n2)CC1 [compound 111, N-(cis-4-{[4-(dimethylamino)quinazolin-2-yl]amino}cyclohexyl)-N′-(2-methylbenzyl)urea]"
7,> 7.30,"CN(C)c1nc(N[C@H]2CC[C@@H](NC(=O)Nc3cccc4ccccc34)CC2)nc2ccccc12 [compound 50, N-(cis-4-{[4-(dimethylamino)quinazolin-2-yl]amino}cyclohexyl)-N′-1-napthylurea]"

row,SMILES,pIC50
1,CN(C)c1nc(N[C@H]2CC[C@@H](NC(=O)Oc3ccc4ccccc4c3)CC2)nc2ccccc12 [compound 856],< 6.70

# Same assay, conditions: class by percent of control at 10^−7 M or by IC50; read-out: class
row,pIC50,SMILES
1,> 7.30,"CN(C)c1nc(N[C@H]2CC[C@@H](NC(=O)COc3ccc(F)cc3)CC2)nc2ccccc12 [Example 1078, N-(cis-4-{[4-(dimethylamino)quinazolin-2-yl]amino}cyclohexyl)-2-(4-fluorophenoxy)acetamide]"
2,> 7.30,"CN(C)c1nc(N[C@H]2CC[C@@H](C(=O)NCc3ccccc3C(F)(F)F)CC2)nc2ccccc12 [Example 1193, cis-4-{[4-(dimethylamino)quinazolin-2-yl]amino}-N-[2-(trifluoromethyl)benzyl]cyclohexanecarboxamide]"
3,> 7.30,"CN(C)c1nc(N[C@H]2CC[C@@H](C(=O)NCc3ccc(C(F)(F)F)cc3)CC2)nc2ccccc12 [Example 1153, cis-4-{[4-(dimethylamino)quinazolin-2-yl]amino}-N-[4-(trifluoromethyl)benzyl]cyclohexanecarboxamide]"
4,> 7.30,"CN(C)c1nc(N[C@H]2CC[C@@H](C(=O)NCc3ccc(Cl)c(C(F)(F)F)c3)CC2)nc2ccccc12 [Example 1178, cis-N-[4-chloro-3-(trifluoromethyl)benzyl]-4-{[4-(dimethylamino)quinazolin-2-yl]amino}cyclohexanecarboxamide]"
5,< 6.70,"CN(C)c1nc(N[C@H]2CC[C@@H](C(=O)NCc3cc(C(F)(F)F)cc(C(F)(F)F)c3)CC2)nc2cc(F)c(F)cc12 [Example 1005, cis-N-[3,5-bis(trifluoromethyl)benzyl]-4-{[4-(dimethylamino)-6,7-difluoroquinazolin-2-yl]amino}cyclohexanecarboxamide]"
6,< 6.70,"CN(C)c1nc(N[C@H]2CC[C@@H](NC(=O)c3ccc(Oc4ccc(OC(F)(F)F)cc4)nc3)CC2)nc2ccccc12 [Example 1062, N-(cis-4-{[4-(dimethylamino)quinazolin-2-yl]amino}cyclohexyl)-6-[4-(trifluoromethoxy)phenoxy]nicotinamide]"
7,> 7.30,"CN(C)c1nc(N[C@H]2CC[C@@H](C(=O)NCc3ccc(Br)cc3)CC2)nc2cc(F)c(F)cc12 [Example 1002, cis-N-(4-bromobenzyl)-4-{[4-(dimethylamino)-6,7-difluoroquinazolin-2-yl]amino}cyclohexanecarboxamide]"
8,6.70 to 7.30,"CN(C)c1nc(N[C@H]2CC[C@@H](NC(=O)C(O)c3ccc(Cl)cc3)CC2)nc2ccccc12 (relative stereo) [Example 1106, 2-(4-chlorophenyl)-N-(cis-4-{[4-(dimethylamino)quinazolin-2-yl]amino}cyclohexyl)-2-hydroxyacetamide]"
